One molecule from patent US9522882B2, “Strigolactam derivatives as plant growth regulating compounds” (Syngenta Participations AG, priority 2011, dated 2016) can be followed below.

Structures are written as SMILES.

The test system of experiment [1] is Brassica oleracea cv Botrytis. Put plainly: Standard paper germination test for Brassica (tropical cauliflower seeds, 20° C. in the dark). In kind it is in vivo. As to conditions: tropical cauliflower 3C150 (seed batch 11B295), 25 μM. As to the method: The effect of compounds of Formula (I) on the germination of Brassica oleracea cv Botrytis or common cauliflower was tested on tropical types. […] Germination of a sensitive tropical type at 20° is stimulated by the presence of light.
The tropical seed batch tested was part of seed batches produced as basic seed (for maintenance of the parental line) and were processed accordingly.
Germination was assessed using the standard paper germination test for Brassica: Fifty seeds were placed on blue germination paper, which was moistened with the appropriate solutions, in closed oblong germination boxes. Each condition was tested in duplo. Germination boxes were placed in controlled germination cabinets with the appropriate temperature and light conditions. Germination of seeds was counted at regular intervals. Seeds were considered to be germinated when the radical had protruded the testa and endosperm (radical size approximately 1 mm). Germination kinetics were analyzed using the Germinator analysis tool in order to obtain the parameters: Gmax (maximum germination) and t50 (time needed to reach 50% of the Gmax). The Germinator analysis tool is an add-in in for excel developed by the University of Wageningen: Joosen, R. V. L., J. Kodde, et al. (2010). (“Germinator: A Software Package for High-Throughput Scoring and Curve Fitting of Arabidopsis Seed Germination.” The Plant Journal 62(1): 148-159.)
Test compounds were dissolved in DMSO at a concentration of 50 mM and stored at −20° C. The strigolactone analogue GR24 (commercially available as a racemic mixture of 2 diastereoisomers, referred to as “synthetic strigolactone GR-24” and first prepared by Johnson A. W. & all, Journal of the Chemical Society, Perkin Transactions 1, 1981, page 1734-1743) was included as positive control. Germination solutions were prepared by diluting the stock solutions with demineralized water till 25 μM. As control solutions demineralized water and a 0.05% v/v DMSO solution were used.

Experiment [2] deals with Orobanche cumana Wallr. seeds. The experiment is described as follows: Orobanche cumana seed germination test on glass fiber filter paper in petri dishes. In kind it is in vivo. The following applies: mean, n = 5 × 100 seeds; for Germination % at concentration of 0.001 mg I^−1 / Germination % at concentration of 0.01 mg I^−1 / Germination % at concentration of 0.1 mg I^−1: preconditioned seeds of lot IN153, raceF. The procedure: The effect of compounds of Formula (I) on germination of Orobanche cumana Wallr. seeds was evaluated on glass fiber filter paper (GFFP) in petri dishes. Seeds were preconditioned at moisture and suitable temperature to become responsive to the specific chemical germination stimulants.
Test compounds were dissolved in DMSO (10 000 mg l^−1) and stored at room temperature in a desiccators with desiccants. The stock solutions were dissolved with deionised water to the appropriate final test concentration.
Seeds of O. cumana race ‘F’ were collected from sunflower fields in Manzanilla (Seville, Spain) in 2006 (seed lot 1N146) and 2008 (seed lot 1N153) and stored at room temperature. To separate seeds from heavy organic debris, a modified sucrose floatation technique as described by Hartman & Tanimonure (Plant Disease (1991), 75, p. 494) was applied. Seeds were filled into a separation funnel and stirred in water. When seeds floated to the surface, the water fraction containing heavy debris was discarded. Seeds were re-suspended in 2.5M sucrose solution (specific gravity of 1.20) and heavy debris was allowed to settle down for 60 min. After removing debris, seeds were disinfected in 1% sodium hypochlorite solution and 0.025% (v/v) Tween 20 for 2 min. The seeds were decanted onto two layers of cheesecloth, rinsed with sterile deionised water and re-suspended in sterile deionised water. Two ml of the seed suspension containing approximately 150-400 seeds were spread evenly on two layers of sterile glass fiber filter paper disc ([…]) in Petri dishes (Ø9 cm). After wetting the discs with 3 ml sterile deionised water, petri dishes were sealed with parafilm. Seeds were incubated for 10 days at 20° C. in the dark for seed conditioning. The upper disc with conditioned seeds was briefly dried, transferred to a petri dish lined with a dry GFFP disc, and wetted with 6 ml of the appropriate test solution. The compounds of Formula (I) were tested at concentrations of 0.001, 0.01, and 0.1 mg l^−1. The strigolactone analogue GR24 (commercially available as a mixture of isomers) was included as positive control and 0.001% DMSO as negative control. All treatments were tested in five replicates. Seeds were re-incubated at 20° C. in the dark and examined for germination 10 days later. The radicles of germinated seeds were stained for 5 min with blue ink (MIGROS, Switzerland) in 5% acetic acid according to Long et al. (Seed Science Research (2008), 18, p. 125). After staining, seeds were scanned using a flatbed scanner with an optical resolution of 1200 dpi (PULSTEK, OpticPro ST28) or photographed using a camera stand mounted with a digital SLR camera (Canon EOS 5D). Germination of 100 seeds per replicate was evaluated on digital images. Seeds were considered germinated when the radicle protruded from the seed coat.

In the case of `CC1=C[C@H](O/C=C2/C(=O)O[C@@H]3c4ccccc4C[C@H]23)OC1=O` [GR24, reference compound], the “stimulation (extra germination compared to the DMSO treatment, expressed as percentage of the DMSO treatment)” value in experiment [1] is 140.0%. In addition, the “Gmax (total germination)” value in experiment [1] (DMSO treatment = 31.3%) was 73.0%. The “Germination % at concentration of 0.001 mg I^−1” value in experiment [2] (Table 5, 0.001 mg I^−1, aqueous control (0.001% DMSO) = 0.2% germination) is recorded as 88.6%; in experiment [2] (Table 6, 0.001 mg I^−1, aqueous control (0.001% DMSO) = 0.8% germination), 79.8%. Also, the “Germination % at concentration of 0.01 mg I^−1” value in experiment [2] (Table 5, 0.01 mg I^−1, aqueous control (0.001% DMSO) = 0.2% germination) is 96.0%; in experiment [2] (Table 6, 0.01 mg I^−1, aqueous control (0.001% DMSO) = 0.8% germination), 93.2%. Also, the “Germination % at concentration of 0.1 mg I^−1” value is listed as 93.8% in experiment [2] (Table 5, 0.1 mg I^−1, aqueous control (0.001% DMSO) = 0.2% germination) and 96.8% in experiment [2] (Table 6, 0.1 mg I^−1, aqueous control (0.001% DMSO) = 0.8% germination). Besides, the “Germination %* at concentration of 0.001 mg I^−1” value in experiment [2] (preconditioned Orobanche cumana seeds of lot IN153, race F, 0.001 mg I^−1, aqueous control (0.001% DMSO) = 0.2% germination) is 60.8%. Further, the “Germination %* at concentration of 0.01 mg I^−1” value in experiment [2] (preconditioned Orobanche cumana seeds of lot IN153, race F, 0.01 mg I^−1, aqueous control (0.001% DMSO) = 0.2% germination) stood at 83.2%. Also, the “Germination %* at concentration of 0.1 mg I^−1” value in experiment [2] (preconditioned Orobanche cumana seeds of lot IN153, race F, 0.1 mg I^−1, aqueous control (0.001% DMSO) = 0.2% germination) was determined as 90.6%.
